Laboratory results: patent US10517867B2, “Posaconazole derivative, pharmaceutical composition and use thereof” (priority 2016, dated 2019)
Read-outs that look alike come from different tables or passages of the source.

Experiments:
[1] = tested on: Candida albicans ATCC10231; assay: Candida albicans vaginitis in mice, intragastric administration; format: in vivo, KM mice; settings: logarithm of the CFU values, mean ± SD of 20 mice; for vaginal fungal load of mice, day 15: 20 mg/kg intragastric once a day for 15 days; for vaginal fungal load of mice, day 3 / vaginal fungal load of mice, day 5 / vaginal fungal load of mice, day 7 / vaginal fungal load of mice, day 11: 20 mg/kg intragastric once a day
[2] = tested on: Candida albicans ATCC10231; assay: Candida albicans vaginitis in mice, intravenous administration; settings: logarithm of the CFU values, mean ± SD of 20 mice; for vaginal fungal load of mice, day 5: 20 mg/kg tail vein once a day for 5 days, day 5 after infection; for vaginal fungal load of mice, day 3: 20 mg/kg tail vein once a day, day 3 after infection
Procedure: KM mice, weighing 18-22 g, female, provided by Hubei Experimental Animal Center.
The standard strain of Candida albicans was purchased from the American Type Culture
Collection, strain number ATCC10231.
Prior to being infected with Candida albicans, animals in each group were given subcutaneous injections of 0.5 ml of estradiol benzoate (2 mg/ml) for 6 consecutive days to allow them to enter the estrus phase. Injections were continued once every 2 days until the completion of the experiment. After 6 days, 20 μl of Candida albicans solution in a concentration of 3.5×10^6 CFU/ml was injected vaginally into each mouse, causing a vaginal infection model. From the first day after infection, each group of animals was given 20 mg/kg of the corresponding drug (calculated as posaconazole) in the tail vein at an administration volume of 0.1 ml/10 g once a day for 5 consecutive days. The model group was given an equal volume of solvent (physiological saline). On the 3rd and 5th days after infection, the vagina of mice were wiped with sterile cotton swabs. The cotton swabs were soaked in 0.9 ml physiological saline. The fungal solutions were diluted to 10-fold increments to give a series of concentrations, and then 100 μl of each concentration of the bacteria solutions was taken and inoculated on Sabourand's dextrose agar solid medium containing 0.5% (W/V) chloramphenicol to observe the fungal load of Candida albicans on the vagina.

[3] = tested on: Aspergillus Fumigutus (AF) strains; assay: Aspergillus fumigatus keratitis in rats, intravenous administration; settings: 10 mg/kg tail vein once daily for 5 days; mean ± SD of 10 rats
[4] = Determination of solubility in deionized water (HPLC, external standard); settings: 25 °C, water, thermodynamic from solid
[5] = tested on: Aspergillus fumigatus AF293; assay: Lung Aspergillus fumigatus infection in immunosuppressed mice, intravenous administration; settings: for lung fungal load: mouse lung tissue, seven days later, mean ± SD; for responders at 20 mg/kg: Aspergillus fumigatus, AF293, in Mus musculus, iv
[6] = tested on: Aspergillus fumigatus AF293; assay: Lung Aspergillus fumigatus infection in immunosuppressed mice, intragastric administration; settings: mouse lung tissue, seven days later, 20 mg/kg intragastric once daily for 5 days, mean ± SD
Procedure: Aspergillus fumigatus AF293, from the Guangdong Provincial Microbial Culture Collection Center.
ICR male mice were injected intraperitoneally with cyclophosphamide 150 mg/kg and injected subcutaneously with dexamethasone 150 mg/kg for 10 consecutive days. At the same time, the blood was taken to measure the changes of peripheral white blood cells and neutrophils, and mice with neutrophils consistently lower than 100/μl were selected as successfully immunosuppressed mice. Immediately after the last injection, the mice were anesthetized with ethyl ether, and mice were transferred from the initial state of excitement to inhibition. After their bodies were relaxed, the mice were immediately taken. Left hand was used to grasp the mouse to make it stand upright, the middle finger pressed the mouth so that it could breath only with the nose, and the ring finger gently pressed the abdomen to move the diaphragm muscle upward. 30 μl of conidia suspension (Aspergillus fumigatus AF293, 3×10^6 conidia) was sent to the nostrils of the anesthetized mice by a micropipette to allow spontaneous inhalation. After the mouse returned to normal breathing, it was returned to the cage. […] Seven days later, the mice were sacrificed and their lung tissues were taken to observe the fungal loads of Aspergillus fumigatus in the lungs of the mice.

[7] = tested on: Candida albicans ATCC10231; assay: Systemic fungal infection in mice, intragastric administration; format: in vivo, ICR mice; settings: Candida albicans, ATCC10231, po
[8] = 24 h, read-out: survival rate of mice, day 1, 20 mg/kg tail vein once daily for 5 days, day 1
[9] = 48 h, read-out: survival rate of mice, day 2, 20 mg/kg tail vein once daily for 5 days, day 2
[10] = 72 h, read-out: survival rate of mice, day 3, 20 mg/kg tail vein once daily for 5 days, day 3
[11] = 96 h, read-out: survival rate of mice, day 4, 20 mg/kg tail vein once daily for 5 days, day 4
[12] = 120 h, read-out: survival rate of mice, day 5, 20 mg/kg tail vein once daily for 5 days, day 5
[13] = 144 h, read-out: survival rate of mice, day 6, 20 mg/kg tail vein once daily for 5 days, day 6
[14] = 168 h, read-out: survival rate of mice, day 7, 20 mg/kg tail vein once daily for 5 days, day 7
[15] = 20 mg/kg tail vein once daily for 5 days

| Structure (SMILES) | Amount of active fungi in cornea at day 7 [3] | solubility at 30 min [4] | vaginal fungal load of mice, day 5 [2] | vaginal fungal load of mice, day 3 [2] | responders at 20 mg/kg [5, 8] | responders at 20 mg/kg [5, 9] | responders at 20 mg/kg [5, 10] | responders at 20 mg/kg [5, 11] | responders at 20 mg/kg [5, 12] | responders at 20 mg/kg [5, 13] | responders at 20 mg/kg [5, 14] | lung fungal load [5, 15] | lung fungal load [6] | also measured |
| --- | --- | --- | --- | --- | --- | --- | --- | --- | --- | --- | --- | --- | --- | --- |
| CC[C@@H]([C@H](C)O)n1ncn(-c2ccc(N3CCN(c4ccc(OC[C@@H]5CO[C@@](Cn6c[n+](C(C)OC(=O)N(C)c7ncccc7COC(=O)[C@@H](N)CCCN)cn6)(c6ccc(F)cc6F)C5)cc4)CC3)cc2)c1=O (stereo partly shown) [ST0007] | 1.87 ± 0.35 10^3 CFU/ml | > 50 mg/mL |  |  |  |  |  |  |  |  |  |  |  | vaginal fungal load of mice, day 15 ([1]; 20 mg/kg): 2.87 ± 0.24; vaginal fungal load of mice, day 3 ([1]; 20 mg/kg): 4.35 ± 0.54; vaginal fungal load of mice, day 5 ([1]; 20 mg/kg): 4.47 ± 0.65; vaginal fungal load of mice, day 7 ([1]; 20 mg/kg): 4.23 ± 0.41; vaginal fungal load of mice, day 11 ([1]; 20 mg/kg): 3.81 ± 0.27; vaginal fungal load of mice, day 5 ([2]; 20 mg/kg): 3.87 ± 0.31; vaginal fungal load of mice, day 3 ([2]; 20 mg/kg): 4.08 ± 0.52; survival rate of mice, day 1 ([5]; 20 mg/kg tail vein once daily for 5 days, day 1): 100%; survival rate of mice, day 2 ([5]; 20 mg/kg tail vein once daily for 5 days, day 2): 100%; survival rate of mice, day 3 ([5]; 20 mg/kg tail vein once daily for 5 days, day 3): 100%; survival rate of mice, day 4 ([5]; 20 mg/kg tail vein once daily for 5 days, day 4): 100%; survival rate of mice, day 5 ([5]; 20 mg/kg tail vein once daily for 5 days, day 5): 90%; survival rate of mice, day 6 ([5]; 20 mg/kg tail vein once daily for 5 days, day 6): 90%; lung fungal load ([5]; 20 mg/kg tail vein once daily for 5 days, 20 mg/kg): 1.68 ± 0.31 10^4 CFU/ml; lung fungal load ([6]; 20 mg/kg): 4.12 ± 0.87 10^4 CFU/ml |
| CC[C@@H]([C@H](C)O)n1ncn(-c2ccc(N3CCN(c4ccc(OC[C@@H]5CO[C@@](Cn6c[n+](C(C)OC(=O)N(C)c7ccccc7COC(=O)[C@@H](N)CCCN)cn6)(c6ccc(F)cc6F)C5)cc4)CC3)cc2)c1=O (stereo partly shown) [ST0008] | 2.59 ± 0.37 10^3 CFU/ml | > 50 mg/mL | 3.86 ± 0.21 | 4.05 ± 0.25 | 100% | 100% | 100% | 90% | 80% | 80% | 70% | 2.07 ± 0.42 10^4 CFU/ml | 3.49 ± 0.64 10^4 CFU/ml | vaginal fungal load of mice, day 15 [1]: 2.68 ± 0.18; vaginal fungal load of mice, day 3 [1]: 4.21 ± 0.32; vaginal fungal load of mice, day 5 [1]: 4.34 ± 0.47; vaginal fungal load of mice, day 7 [1]: 3.85 ± 0.35; vaginal fungal load of mice, day 11 [1]: 3.31 ± 0.29; responders at 20 mg/kg ([7]; 24 h, read-out: survival rate of mice, day 1, 20 mg/kg intragastric once daily for 5 days, day 1): 100%; responders at 20 mg/kg ([7]; 48 h, read-out: survival rate of mice, day 2, 20 mg/kg intragastric once daily for 5 days, day 2): 90%; responders at 20 mg/kg ([7]; 72 h, read-out: survival rate of mice, day 3, 20 mg/kg intragastric once daily for 5 days, day 3): 90%; responders at 20 mg/kg ([7]; 96 h, read-out: survival rate of mice, day 4, 20 mg/kg intragastric once daily for 5 days, day 4): 80%; responders at 20 mg/kg ([7]; 120 h, read-out: survival rate of mice, day 5, 20 mg/kg intragastric once daily for 5 days, day 5): 80%; responders at 20 mg/kg ([7]; 144 h, read-out: survival rate of mice, day 6, 20 mg/kg intragastric once daily for 5 days, day 6): 60%; responders at 20 mg/kg ([7]; 168 h, read-out: survival rate of mice, day 7, 20 mg/kg intragastric once daily for 5 days, day 7): 60% |
| CC[C@@H]([C@H](C)OP(=O)(O)O)n1ncn(-c2ccc(N3CCN(c4ccc(OC[C@@H]5CO[C@@](Cn6c[n+](C(C)OC(=O)N(C)c7ncccc7COC(=O)[C@@H](N)CCCN)cn6)(c6ccc(F)cc6F)C5)cc4)CC3)cc2)c1=O (stereo partly shown) [ST0009] | 2.76 ± 0.45 10^3 CFU/ml | > 50 mg/mL | 3.89 ± 0.54 | 4.05 ± 0.23 | 100% | 100% | 100% | 90% | 80% | 80% | 70% | 2.03 ± 0.46 10^4 CFU/ml | 3.91 ± 0.85 10^4 CFU/ml |  |
